Experiments:
EV-A71 IRES activity = assay: Dual-luciferase IRES reporter assay in HEK 293T cells pre-treated with peptides; format: cell-based; settings: 25 μM for 2 hours; for decrease of 2Apro-induced viral IRES activity: 24 h
Description: (§1) FIGS. 10A-10K. Peptide S78 inhibited EV-A71 replication and propagation. (FIG. 10A) RD cells were pre-treated with peptides S78 or for 2 hours and infected with EV-A71 at the MOI of 10 for 6 hours. Cell lysates were collected for western blot assay. Hsp27 phosphorylation on Ser 15, 78, 82 were detected by specific antibodies. β-Actin were detected as internal control. (FIG. 10B) Densitometric analysis of FIG. 9A. (FIG. 10C) HEK 293T cells were pre-treated with peptides S78 or S78A at the concentration of 25 μM for 2 hours and then co-transfected with Hsp27-WT plasmid (800 ng), pIRES reporter plasmid (200 ng) and 2A^pro-expressing plasmid or 2AC110A-expressing plasmid (200 ng) for 24 h, then the luciferase activity was measured. (FIG. 10D-10E) RD cells were treated with peptides S78 or S78A and then infected with EV-A71. EV-A71 VP1 were detected. (FIG. 10F) RD cells were treated with peptides and then infected with EV-A71 at the MOI of 1 for 12 hours. The EV-A71-induced CPE was captured. (FIG. 10G-10H) Intracellular viral RNA was extracted and quantified by qPCR. (FIG. 10I) Densitometric analysis FIG. 9D-E. (FIG. 10J) RD cells were treated with peptides S78 or and then infected with EV-A71 at the MOI of 1 for 12 hours. Extracellular viral RNA was extracted and quantified by qPCR. (FIG. 10K) Viral titration was calculated by TCID50. The Statistical analyses were carried out using Student's t-test. *: p<0.05, **: p<0.01, ***: p<0.001. Data are expressed as mean ±SD.
FIGS. 11A-11G Inhibition of EV-A71 Protein Translation and Viral Reproduction by peptide S82A. (FIG. 11A) HEK 293T cells were pre-treated with peptides NC, S78, S78A, S82A, or S78-3A at the concentration of 25 μM for 2 hours and then co-transfected with Hsp27-WT plasmid (800 ng), pIRES reporter plasmid (200 ng) and 2A^pro-expressing plasmid for 24 h, then the luciferase activity was measured. (FIG. 11B) RD cells were pre-treated with peptides NC at indicated concentrations for 2 hours and infected with EV-A71 at the MOI of 1 for 9 hours. Intracellular viral RNA was extracted and quantified by qPCR. […] EV-A71 VP1 were detected. β-Actin was detected as an internal control. (FIG. 11F) Densitometric analysis of the EV-A71 VP1 level in FIG. S7C-E was quantified and normalized with β-Actin using ImageJ. […] Viral titration was calculated. […] Data are expressed as mean ±SD.
HEK 293T cells were seeded in 24-wells, and then co-transfected with plasmids to simultaneously express 2A^pro (200 ng), pIRES reporter (200 ng), and the wild-type Hsp27 or its mutants (800 ng). […] The Renilla luciferase (RLuc) and Firefly luciferase (FLuc) activity were determined by using a dual-luciferase reporter assay (Promega) according to the manufacturer's instructions in a Lumat LB9507 bioluminometer.

EV-A71 VP1 = assay: Western blot of EV-A71 VP1 level in RD cells; format: cell-based; settings: for EV-A71 VP1 protein level (in words): indicated concentrations
Description: as §1
FIGS. 11A-11G Inhibition of EV-A71 Protein Translation and Viral Reproduction by peptide S82A. (FIG. 11A) HEK 293T cells were pre-treated with peptides NC, S78, S78A, S82A, or S78-3A at the concentration of 25 μM for 2 hours and then co-transfected with Hsp27-WT plasmid (800 ng), pIRES reporter plasmid (200 ng) and 2A^pro-expressing plasmid for 24 h, then the luciferase activity was measured. (FIG. 11B) RD cells were pre-treated with peptides NC at indicated concentrations for 2 hours and infected with EV-A71 at the MOI of 1 for 9 hours. Intracellular viral RNA was extracted and quantified by qPCR. (FIG. 11C-11E) RD cells were treated with peptides NC, S82A, or S78-3A at indicated concentrations for 2 hours and then infected with EV-A71 at the MOI of 1 for 9 hours. Cell lysates were collected for western blot assay. EV-A71 VP1 were detected. β-Actin was detected as an internal control. (FIG. 11F) Densitometric analysis of the EV-A71 VP1 level in FIG. S7C-E was quantified and normalized with β-Actin using ImageJ. (FIG. 11G) RD cells were treated with peptides S78, S78A, S82A, or S78-3A at the concentration of 25 μM for 2 hours and then infected with EV-A71 at the MOI of 0.1 for 24 hours. Viral titration was calculated. The Statistical analyses were carried out using Student's t-test. *: p<0.05, **: p<0.01, ***: p<0.001. Data are expressed as mean ±SD.
After cell lysis in Nonidet-P40 (NP-40) buffer, the cell lysates were centrifuged, and the concentration was determined by Bradford assay (Bio-Rad). 20 μg of protein was used for 12% SDS-PAGE and transferred onto polyvinylidene fluoride membrane (PVDF) (GE, MA, USA). Following 5% bovine serum albumin (BSA) blocking for 1 hrs, the membrane was incubated with antibodies (1:1000) against Hsp27 (sc-13132), pHsp27-Ser15 (ab76313), pHsp27-Ser78 (ADI-SPA-523), pHsp27-Ser82 (ab155987), VP1 (GTX132339), β-Actin (sc-47778), hnRNP A1 (sc-32301), or GAPDH (sc-32233) overnight in 4° C. After secondary antibodies (HRP-conjugated Affinipure Goat Anti-Mouse IgG(H+L), SA00001-1, and HRP-conjugated Affinipure Goat Anti-Rabbit IgG(H+L), SA00001-2) incubation for 1 hrs, the protein was visualized with a chemiluminescence reagent (PerkinElmer, MA, USA) on Bio-Rad Chemidoc Imaging System. The protein bands were quantified by densitometry with ImageJ if necessary.

Substance | decrease of 2Apro-induced viral IRES activity (EV-A71 IRES activity) | reduction of VP1 level (densitometric assay) (EV-A71 VP1; 50 μM) | EV-A71 VP1 protein level (in words) (EV-A71 VP1) | EV-A71 VP1 protein level at 50 μM (in words) (EV-A71 VP1; 50 μM) | effect on viral IRES activity (in words) (EV-A71 IRES activity; 24 h (FIG. 11A))
Ac-RKKRRQRRRAYSRALARQLSS-NH2 [S78A] | about 10% | about 60% | much weaker | – | –
Ac-RKKRRQRRRAYSRALSRQLSS-NH2 [S78] | 34% | over 99% | dramatically decreased | almost undetectable level | –
Ac-RKKRRQRRRYSREANQPKPSPKRESGEE-NH2 [NC, reference compound] | – | – | no effect | – | did not affect
